Assay results from patent publication EP0373645A1, “Imidazolyl and pyridyl derivatives of phenyl substituted 1,4 -dihyropyridines and process for their preparation” (priority 1988, dated 1990).

What was measured:
[1] = target: T1, TxA₂ Synthase (Rattus norvegicus, UniProt P49430); assay: In vitro effect on TxB₂ synthesis in whole blood during clotting (RIA); type: cell-based; details: for times more potent than the reference compound ASA (TxA₂ synthesis in whole blood): ratio to ASA; for times more potent than the reference compound Dazoxiben (TxA₂ synthesis in whole blood): ratio to Dazoxiben
T1 construct: Blood was withdrawn from the abdominal aorta of the animals; from tissue; host or cells: whole blood of reduced renal mass (RRM) rats, allowed to clot 1 h at 37°C
T1 sequence (P49430 1-533): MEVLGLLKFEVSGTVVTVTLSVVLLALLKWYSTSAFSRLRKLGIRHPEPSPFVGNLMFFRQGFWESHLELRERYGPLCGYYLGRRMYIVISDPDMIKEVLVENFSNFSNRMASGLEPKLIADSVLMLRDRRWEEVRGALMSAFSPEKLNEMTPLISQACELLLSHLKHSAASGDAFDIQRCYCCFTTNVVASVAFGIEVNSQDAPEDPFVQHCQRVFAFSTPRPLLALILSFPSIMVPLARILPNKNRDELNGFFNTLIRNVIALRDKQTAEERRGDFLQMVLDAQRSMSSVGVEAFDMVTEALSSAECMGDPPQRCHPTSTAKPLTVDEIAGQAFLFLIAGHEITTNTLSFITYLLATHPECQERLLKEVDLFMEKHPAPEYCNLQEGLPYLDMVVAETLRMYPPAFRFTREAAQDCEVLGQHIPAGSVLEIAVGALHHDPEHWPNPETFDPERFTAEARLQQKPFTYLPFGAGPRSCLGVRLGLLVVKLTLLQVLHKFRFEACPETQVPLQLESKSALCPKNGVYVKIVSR
Experimental: (§1) Their ability to inhibit TxA₂ Synthase activity (as reflected by TxB₂ generated in whole blood during clotting or in isolated glomeruli) was tested in vitro and ex vivo in the rat.
(§2) The effect of the compounds on TxA₂ synthesis was evaluated in serum and in glomeruli isolated from kidney cortex of reduced renal mass rats (RRM). Ablation of >70% of renal mass in the rat results in hypertension, proteinuria and glomerular sclerosis of the remnant kidney. Rats with a remnant kidney have increased excretion of thromboxane in the urine when compared with normal rats [Purkerson et al.-Proc.Natl.Acad.Sci.USA 82, 193, 1985].
Blood was withdrawn from the abdominal aorta of the animals under light ether anesthesia.
Samples were then allowed to clot for 1 h at 37°C, centrifuged at 3000 rpm for 10 min, serum collected and stored at -20°C until assayed. TxB₂ levels were determined by RIA according to previously described procedures [Patrono et al.-Thromb.Res. 17, 3/4, 317, 1980] using highly specific antibody.

[2] = target: T1, TxA₂ Synthase; assay: In vitro effect on TxB₂ synthesis in isolated glomeruli (RIA); type: cell-based
Experimental: as §1, §2
The isolation of glomeruli was performed as previously described [Patrignani et al., - J. Pharm. Exp. Ther. 228, 2, 472, 1984]
The isolated glomeruli of 4 rats were pooled, suspended in modified Krebs buffer (pH 7.3) and divided into portions of 1 ml each containing a concentration of the test compounds or of the reference compounds.
The TxA₂ synthesis was induced by incubating the glomeruli under shaking at 37°C for 1 h. At that time the incubation was stopped by centrifugation at +4°C, the supernatant collected and stored at -20°C until assayed by RIA.

[3] = target: T1, TxA₂ Synthase; assay: Ex vivo inhibition of TxA₂ synthesis in serum after oral administration; details: 1 h, p.o., blood taken one hour after treatment, read-out: ED₅₀ inhibition of the synthesis of TxA₂ (ex vivo)
Experimental: as §1
The ex vivo experiments were performed as follows.
The compounds were orally administered to RRM rats by gavage at the dose of 2.5 mg/kg in 0.5% methocel. One hour after treatment rats were anaesthetised with ether, blood was withdrawn from the abdominal aorta and allowed to clot for 1 h at 37°C. Samples were then centrifuged, serum collected and stored at -20°C until assayed.

[4] = system: chronically cannulated hypertensive rats (SHR); assay: Antihypertensive activity, intra-arterial blood pressure and heart rate; type: in vivo
Experimental: The antihypertensive activity of the compounds of the invention was tested in chronically cannulated hypertensive rats (SHR).
For intra-arterial measurements of blood pressure (MBP) catheters (PE50 Clay Adams) were implanted in the right carotid artery under alothane anesthesia. Two days after surgery the animals were placed in a Ballman cage and the arterial catheter was connected to a stathman P23 Db pressure transducer and a Beckman multichannel R611 BP recorder for continuous monitoring of MBP and heart rate (HR).
Measurements were made predrug and 0.5, 1, 2, 4, 6 h after drug or vehicle (methocel 0.5% w/v).

[5] = Orientative acute oral toxicity; set-up: species or system Mice and rats; details: in vivo; single oral administration, assessed on the seventh day after treatment; read-out: orientative acute toxicity (LD₅₀)
Experimental: The toxicity of the compounds of the invention is negligible, so that they can be safely used in therapy. Mice and rats which had been deprived of food for nine hours were treated orally with single administrations of increasing doses of compounds of the invention, then housed and normally fed. For example the orientative acute toxicity (LD₅₀) of the compound FCE 24265, assessed on the seventh day after treatment, was higher than 800 mg/kg.

[6] = RRM rats whole blood, clotting 1 h at 37°C, read-out: In vitro effect on TxB₂ synthesis in RRM rats whole blood, IC₅₀

| Compound | IC50 [1] [nM] | IC50 [2] [nM] | IC50 [1, 6] [nM] | times more potent than the reference compound ASA (TxA₂ synthesis in whole blood) [1] [times] | times more potent than the reference compound Dazoxiben (TxA₂ synthesis in whole blood) [1] [times] | IC50 ([2]; RRM rats isolated glomeruli, incubation 1 h at 37°C, read-out: In vitro effect on TxB₂ synthesis in RRM rats glomeruli, IC₅₀) [nM] | times more potent than ASA on glomerular TxB₂ synthesis ([2]; glomeruli, ratio to ASA) | times more potent than Dazoxiben on glomerular TxB₂ synthesis ([2]; glomeruli, ratio to Dazoxiben) [times] | ED50 [3] [mg/kg] | changes in heart rate [4] | time until blood pressure returned toward normal levels ([4]; after treatment) [h] | peak effect on blood pressure (MBP) ([4]; peak reached at 30 minutes postdrug) [mm Hg] | LD50 at 168 h [5] [mg/kg] |
| --- | --- | --- | --- | --- | --- | --- | --- | --- | --- | --- | --- | --- | --- |
| CC(=O)Oc1ccccc1C(=O)O [ASA, Acetylsalicylic acid, reference compound] | 42000 | 140000 |  |  |  |  |  |  |  |  |  |  |  |
| CCOC(=O)C1=C(C)NC(C)=C(C(=O)OCC)C1c1cccc(-n2ccnc2)c1 [FCE 24265, 1,4-dihydro-2,6-dimethyl-4-[3-(1H-imidazol-1-yl)phenyl]-3,5-pyridinedicarboxylic acid, diethyl ester] |  |  | 170 | 247 | 7 | 36 | ~4,000 times | 4.7 | 2.3 | No changes | 3 | -30 ± 4 | > 800 |
| CCOC(=O)C1=C(C)NC(C)=C(C(=O)OCC)C1c1cccc(-c2cccnc2)c1 [FCE 26055, 1,4-dihydro-2,6-dimethyl-4-[3-(3-pyridyl)phenyl]-3,5-pyridinedicarboxylic acid, diethyl ester] |  |  | 450 | 90 | 3 |  |  |  |  |  |  |  |  |
